Experimental data from patent US11980620B2, “Compounds and methods for treatment of Diamond Blackfan anemia” (THE CHILDREN'S MEDICAL CENTER CORPORATION, priority 2017, dated 2024).

How the values were obtained:
[1] = test system: CD71+ cells in a erythroid cell population; assay: Percentage of CD71+ cells in an erythroid cell population in vitro; assay type: cell-based; details: between 5-20 μM in vitro
Source text: Accordingly, in some embodiments, an autophagy activator as disclosed herein can be administered to a subject according to the methods as disclosed herein in an effective dose to increase the levels of CD71+ cells in an erythroid cell population obtained from the subject by at least about 1%, at least about 2%, at least about 3%, at least about 5%, at least about 10%, at least about 15%, least about 20%, at least about 30%, at least about 40%, at least about 50%, or more than 50%, as compared to in the absence of an autophagy activator.

CB CD34+ cells = assay type: in vivo, NSG mice; details: 1 mg/kg Dex (sodium-phosphate) for 4 weeks; p=0.04
Description: (FIG. 10A) SMER28 rescues RBC output in rps29^+/− zebrafish embryos. The level of hemoglobin in the yolk sac was visualized 40hpf with benzidine staining. Images are representative of the proportion of embryos indicated (of total counted). (FIG. 10B) Quantitation of SMER28 rescue for a range of 0.1-1 μM, with embryos grouped by high, medium, and low levels of hemoglobin staining. (FIG. 10C) Peripheral blood (PB) RBC counts and hematocrit in mice with irradiation-induced anemia. Mice were treated with the PEG400-based vehicle containing DMSO (VEH) (n=11), 1 mg/kg Dex (sodium-phosphate) (n=13), or 10 mg/kg SMER28 (n=9) for 3 weeks, bled, and assessed. Data are combined from 3 independent experiments. (FIG. 10D) Erythroid cells as proportion of the human graft in mice transplanted with DBA CD34-5F progenitors, and treated as in (FIG. 1c). (FIG. 10E) Levels of human engraftment in NSG mouse bone marrow (BM) transplanted with CB CD34^+ cells. Mice were treated with DMSO plus vehicle (VEH) (n=10), 1 mg/kg Dex (sodium-phosphate) (n=6), or 2 mg/kg SMER28 (n=11) for 4 weeks. (FIG. 10F) The proportion of erythroid, myeloid, and lymphoid (B cells) lineages within the human graft in vehicle- and SMER28-treated mice transplanted with CB CD34^+ cells. Only the effect on the erythroid lineage was significant. Data in FIGS. 10E-10G are pooled from 2 independent experiments. For all panels, *p<0.05, * *p<0.01.
Drug treatments. SMER28 was purchased from Tocris and diluted in 10 mM aliquots in DMSO. The final concentration for CD34-5F and CB CD34^+erythroid treatments was 0.2-10 μM as indicated in the text. The final concentration for K562 cell treatments was 20-40 μM. Ferric citrate (1-50 μM) and deferoxamine (100-200 μM) (Sigma) were dissolved in PBS and added on days 0-4 of “expansion” culture, and washed off prior to erythroid stage I (days 4-9) differentiation. For in vivo experiments, SMER28 aliquots were diluted in vehicle solution: 30% PEG-400, 5% propylene glycol, and 0.5% Tween-80. Dosing for human xenograft experiments was 2 mg/kg; for mouse models 10-20 mg/kg. Dexamethasone was purchased as Dex-sodium phosphate (DexSP) water-soluble formulation (Santa Cruz), and diluted in PBS vehicle (1 mg/kg). NSG mice were sub-lethally irradiated at 275 rads, and administered 100 μl of drug or vehicle by oral gavage daily.

[2] = test system: K562 erythroleukemia cells transduced with shRPS19; assay: Autophagy induction (p62, LC3-I, LC3-II protein levels) in K562 cells transduced with shRPS19; assay type: cell-based, human; details: 5-FU 100 nM
Description: (FIG. 13A) Induction of autophagy by SMER28 (40 μM) monitored by protein levels of p62, LC3-I, and LC3-II after 24 hours. Cells were also treated with 5-FU (100 nM) to induce autophagy, or inhibitor of transcription actinomycin D (ActD; 100 nM). (FIG. 13B) Induction of autophagy by SMER28 (40 μM) monitored by protein levels of p62, LC3-I, and LC3-II after 24 hours treatment with or without lysosomal blockade with bafilomycin A (200 nM for 4 hours). Untreated samples are shown at higher exposure, to capture dynamic changes in the LC3-II levels. Rapamycin (200 nM) is a positive control. LC3-II levels relative to GAPDH are quantitated on the right. (FIG. 13C) Erythroid differentiation of CD34-5F cells transduced with shRNAs for luciferase (LUC) or ATG5±SMER28. Representative flow plots and quantitation showing the number of erythroid cells induced by SMER28 (10 μM) normalized to DMSO. 2 control luciferase shRNAs and 2 ATG5 shRNAs are included (knockdown efficiency in hematopoietic cells of 58% and 50%, respectively), each with 2 independent lines; p=0.005, 3 independent experiments. (FIG. 13D) Atg5 deficiency causes anemia in zebrafish. Wild-type zebrafish embryos were treated with 1.6 ng atg5 or missense morpholino, and hemoglobin staining was visualized with benzidine staining at 40 hpf with SMER28 (1 μM). Representative images (left), and quantitation (right) with embryos grouped by high, medium, and low levels of benzidine staining.
SMER28 was identified as an mTOR-independent inducer of autophagy, by synergizing with rapamycin to promote clearance of protein aggregates in models of neurodegenerative disease (Sarkar et al., 2007; Tian et al., 2011). Autophagy is a pro-survival pathway induced by a variety of stresses, such as nutrient limitation or protein aggregation. Autophagy is required for clearance of mitochondria during terminal erythroid maturation (Mortensen and Simon, 2010), but has not been linked with earlier stages of erythropoiesis. To determine if SMER28 modulates autophagy in erythroid cells, we interrogated the levels of p62 and LC3 in K562 erythroleukemia cells transduced with shRPS19. SMER28 reduced p62 and increased the levels of […] LC3-II isoform associated with autophagosomes (FIG. 13A). […] To measure autophagic flux, we monitored LC3-II levels after blocking lysosomal fusion with bafilomycin A. SMER28 increased LC3-II levels following lysosomal blockade, similarly to the mTOR inhibitor rapamycin (FIG. 13B).
Drug treatments. SMER28 was purchased from Tocris and diluted in 10 mM aliquots in DMSO. The final concentration for CD34-5F and CB CD34^+erythroid treatments was 0.2-10 μM as indicated in the text. The final concentration for K562 cell treatments was 20-40 μM. […]

CN1CCN(CCCN2c3ccccc3Sc3ccc(C(F)(F)F)cc32)CC1 [TFP]
percentage of CD71+ cells [1]: restored

C[C@@H]1C[C@H]2[C@@H]3CCC4=CC(=O)C=C[C@]4(C)[C@@]3(F)[C@@H](O)C[C@]2(C)[C@@]1(O)C(=O)CO [Dex, Dexamethasone, reference compound]
RBC output as proportion of human graft (CB CD34+ cells): 10.4%

O=c1[nH]cc(F)c(=O)[nH]1 [5-fluorouracil, reference compound]
conversion of cytosolic LC3-I into LC3-II [2]: induced
